Results as given in patent publication US10173971B2, “Picolinamides with fungicidal activity” (DOW AGROSCIENCES LLC, priority 2014, dated 2019).
Like-named read-outs stand apart in the source and are kept apart here.

Tests used:
Puccinia triticina = assay: Fungicidal activity: wheat brown rust (PUCCRT), wheat seedlings, booth sprayer to run-off or track spray; assay type: in vivo; details: for pest or weed control at 100 ppm: High-Volume Cereal Activity at 100 ppm; for pest or weed control at 121.5 g/ha: Low-Volume Cereal Activity at 121.5 g/H
Procedure: All fungicides were evaluated using the aforementioned method for their activity vs. all target diseases. Wheat leaf blotch and brown rust activity were also evaluated using track spray applications, in which case the fungicides were formulated as EC formulations, containing 0.1% Trycol 5941 in the spray solutions. Wheat plants (variety Yuma) were grown from seed in a greenhouse in 50% mineral soil/50% soil-less Metro mix until the first leaf was fully emerged, with 7-10 seedlings per pot. These plants were inoculated with an aqueous spore suspension of Puccinia triticina either prior to or after fungicide treatments. […] The plants were then transferred to a greenhouse set at 24° C. for disease to develop. Fungicide formulation, application and disease assessment followed the procedures as described in the Example A.

Zymoseptoria tritici = assay: Fungicidal activity: leaf blotch of wheat (SEPTTR), wheat seedlings, booth sprayer to run-off or track spray; assay type: in vivo; details: for pest or weed control at 100 ppm: High-Volume Cereal Activity at 100 ppm; for pest or weed control at 121.5 g/ha: Low-Volume Cereal Activity at 121.5 g/H
Procedure: All fungicides were evaluated using the aforementioned method for their activity vs. all target diseases. Wheat leaf blotch and brown rust activity were also evaluated using track spray applications, in which case the fungicides were formulated as EC formulations, containing 0.1% Trycol 5941 in the spray solutions. Wheat plants (variety Yuma) were grown from seed in a greenhouse in 50% mineral soil/50% soil-less Metro mix until the first leaf was fully emerged, with 7-10 seedlings per pot. These plants were inoculated with an aqueous spore suspension of Zymoseptoria tritici either prior to or after fungicide treatments. After inoculation the plants were kept in 100% relative humidity (one day in a dark dew chamber followed by two to three days in a lighted dew chamber at 20° C.) to permit spores to germinate and infect the leaf. The plants were then transferred to a greenhouse set at 20° C. for disease to develop. When disease symptoms were fully expressed on the 1st leaves of untreated plants, infection levels were assessed on a scale of 0 to 100 percent disease severity. Percent disease control was calculated using the ratio of disease severity on treated plants relative to untreated plants.

[1] = 24 h, 1 Day Protectant, read-out: PUCCRT 1DP
[2] = 24 h, 1 Day Protectant, read-out: SEPTTR 1DP
[3] = 3DC (Day Curative), read-out: PUCCRT 3DC
[4] = 3DC (Day Curative), read-out: SEPTTR 3DC
[5] = 72 h, 3 Day Curative, read-out: PUCCRT 3DC

Row | SMILES | pest or weed control at 100 ppm (Puccinia triticina; [1]) | pest or weed control at 100 ppm (Puccinia triticina; [3]) | pest or weed control at 100 ppm (Zymoseptoria tritici; [4]) | further results
1 | C=C[C@H](Cc1ccc(C(F)(F)F)cc1)[C@@H](Cc1ccc(F)cc1)[C@H](C)OC(=O)CNC(=O)c1nccc(OC)c1O [compound 109] | 0 to 80% | – | – | –
2 | CC[C@H](Cc1ccc(C(F)(F)F)cc1)[C@@H](Cc1ccc(F)cc1)[C@H](C)OC(=O)[C@H](COC)NC(=O)c1nccc(OC)c1O [compound 110] | 80 to 100% | – | – | –
3 | CC[C@H](Cc1ccccc1)[C@@H](Cc1ccc(OC(F)(F)F)cc1)[C@H](C)OC(=O)[C@H](C)NC(=O)c1nccc(OC)c1O [compound 112] | 0 to 80% | – | – | pest or weed control at 100 ppm (Zymoseptoria tritici; [2]): 0 to 80%
4 | CCC[C@@H](Cc1ccccc1)[C@H](C)OC(=O)[C@H](C)NC(=O)c1nccc(OC)c1O [compound 113] | 80 to 100% | 80 to 100% | 80 to 100% | pest or weed control at 100 ppm (Zymoseptoria tritici; [2]): 0 to 80%
5 | COC(=O)[C@@H](Cc1ccccc1)[C@H](C)OC(=O)[C@H](C)NC(=O)c1nccc(OC)c1O [compound 114] | 0 to 80% | 0 to 80% | 0 to 80% | –
6 | CCCC[C@@H]([C@H](C)OC(=O)[C@H](C)NC(=O)c1nccc(OC)c1O)[C@H](CC)Oc1ccccc1 [compound 115] | 80 to 100% | 80 to 100% | 80 to 100% | –
7 | CCCC[C@@H]([C@H](C)OC(=O)[C@H](C)NC(=O)c1nccc(OC)c1O)[C@@H](CC)Oc1ccccc1 [compound 116] | 0 to 80% | 80 to 100% | 0 to 80% | pest or weed control at 100 ppm (Zymoseptoria tritici; [2]): 0 to 80%
8 | CC[C@H](Oc1ccccc1)[C@@H](Cc1ccccc1)[C@H](C)OC(=O)[C@H](C)NC(=O)c1nccc(OC)c1O [compound 117] | 80 to 100% | 80 to 100% | 0 to 80% | pest or weed control at 100 ppm (Zymoseptoria tritici; [2]): 80 to 100%
9 | CC[C@@H](Oc1ccccc1)[C@@H](Cc1ccccc1)[C@H](C)OC(=O)[C@H](C)NC(=O)c1nccc(OC)c1O [compound 118] | 0 to 80% | 80 to 100% | 0 to 80% | pest or weed control at 100 ppm (Zymoseptoria tritici; [2]): 80 to 100%
10 | COc1ccnc(C(=O)N[C@@H](C)C(=O)O[C@@H](C)[C@H](Cc2ccccc2)c2ccccc2)c1O [compound 119] | – | – | 0 to 80% | –
11 | COc1ccnc(C(=O)N[C@@H](C)C(=O)O[C@@H](C)[C@H](Cc2ccccc2)C(C)C)c1O [compound 122] | 0 to 80% | – | – | –
12 | COc1cccc(CC(Cc2cccc(OC)c2)[C@H](C)OC(=O)[C@H](C)NC(=O)c2nccc(OC)c2O)c1 [compound 152] | 80 to 100% | 0 to 80% | – | –
13 | CCCOC[C@@H](Cc1ccccc1)[C@H](C)OC(=O)CNC(=O)c1nccc(OC)c1OC(C)=O [compound 176] | – | – | – | pest or weed control at 121.5 g/ha (Puccinia triticina; [1]): 80 to 100%; pest or weed control at 121.5 g/ha (Puccinia triticina; [5]): 0 to 80%
14 | CC[C@H](Cc1ccc(C(F)(F)F)cc1)[C@@H](Cc1ccc(F)cc1)[C@H](C)OC(=O)[C@H](C)NC(=O)c1nccc(OC)c1OC(C)=O [compound 182] | – | – | – | pest or weed control at 121.5 g/ha (Puccinia triticina; [1]): 0 to 80%; pest or weed control at 121.5 g/ha (Puccinia triticina; [5]): 0 to 80%
15 | CC[C@H](Cc1ccc(C(F)(F)F)cc1)[C@@H](Cc1ccc(F)cc1)[C@H](C)OC(=O)CNC(=O)c1nccc(OC)c1OC(C)=O [compound 183] | – | – | – | pest or weed control at 121.5 g/ha (Puccinia triticina; [1]): 0 to 80%
16 | COC(=O)[C@@H](Cc1ccccc1)[C@H](C)OC(=O)[C@H](C)NC(=O)c1nccc(OC)c1OC(C)=O [compound 186] | – | – | – | pest or weed control at 121.5 g/ha (Zymoseptoria tritici; [2]): 0 to 80%
17 | COc1ccnc(C(=O)N[C@@H](C)C(=O)O[C@@H](C)[C@H](Cc2ccc(Cl)c(Cl)c2)c2ccccc2)c1OC(=O)C(C)C [compound 217] | – | – | – | pest or weed control at 121.5 g/ha (Zymoseptoria tritici; [2]): 0 to 80%; pest or weed control at 121.5 g/ha (Zymoseptoria tritici; 72 h, 3 Day Curative, read-out: SEPTTR 3DC): 0 to 80%
18 | CCCOC[C@@H](Cc1ccc(OC)cc1)[C@H](C)OC(=O)[C@H](C)NC(=O)c1nccc(OC)c1OCOC(C)=O [compound 256] | – | – | – | pest or weed control at 121.5 g/ha (Puccinia triticina; [1]): 80 to 100%; pest or weed control at 121.5 g/ha (Puccinia triticina; [5]): 80 to 100%
